Values belong to the molecule of their own block, whether it stands above or below them.
Assays:
[1] = test system: human IgG; experiment: Microscale Thermophoresis (MST) with IgG-FITC; type: binding
Protocol: For MST assays of E6, IgG was conjugated with fluoresceine isothiocyanate (FITC) using standard protocols. The conjugated IgG-FITC was used at a fixed concentration of 50nM and 16 serial dilutions of E6 protein (from 23.5 µM to 0.7 nM) were made in 50 mM MOPS 0.05% (v/v) Tween-20 pH 7.
For MST assays of E6_M2_T2, the target was hIgG-FITC (F9636, Sigma) at a constant concentration of 25 nM. For the E6_M2_T2 ligand, 16 samples were prepared in variable concentrations starting from 695 nM and using a serial dilution of 1:2 up to a minimum concentration of […] using PBS1x-0.05% (v/v) Tween-20 pH7.4.
Samples were transferred to a standard capillary (Monolith NT.115 Capillary, Nanotemper) with the following settings: medium MST-power, excitation power at 20%, with excitation in Nano-Blue, with thermostat at 25 °C. The signal of the samples was read in triplicates using a Monolith NT.115 (Nanotemper) and the signal was processed in the manufacturer software with FitModel: Kd and Hill. The binding parameters (KD and EC50) and were estimated automatically in the MST software.

[2] = Solubility / precipitation observed during production, dialysis and purification; type: physicochemical
Protocol: Therefore, after expression the soluble fractions were further centrifuged at 42,000 g for 20 min at 4 °C. As the samples were diluted (∼5 mg/mL in 25 mL lysis buffer), the soluble fractions were lyophilized and resuspended in 4 mL of water. The samples were dialyzed (Membranes Spectra Pre-Treated 1 kDa, Carl Roth) to Binding buffer without imidazole (20 mM Sodium Phosphate, 500 mM Sodium Chloride pH 7.4) for 24 h at 16 °C. The samples were quantified by […] (typically ∼6 mg/mL), this solution was diluted 1:2 in Binding buffer (20 mM Sodium Phosphate, 500 mM Sodium Chloride, 20 mM imidazole pH 7.4) and purified in a gravitational flow with 6 mL of resin (IMAC Sepharose 6 Fast Flow (Ni^2+), Cytiva) packed in a PD-10 column. The column was prepared using the indications of the manufacturer. The binding of the protein to the column was maximized by an incubation for 1 h at room temperature in agitation at 40rpm. The resin was washed 4 x column volumes (CV) with binding buffer. The elution as achieved by incubation for 15min with elution buffers. We used a gradient with 3 x CV elution buffer 1 (binding buffer with 100 mM imidazole) and 3 x CV elution buffer 2 (binding buffer with 200 mM imidazole).
The most enriched elutions in WW domains (60%–70% purity) were combined and dialysed against PBS1x (10 mM Na2HPO4, 1.8 mM KH2PO4, 2.7 mM KCl, 137 mM NaCl pH 7.4) with routine changes of buffer up to 48 h at 16 °C. Following the samples were concentrated with a Amicon-Ultra15 3 kDa MWCO (Millipore) with centrifugation conditions 4,900 g, 30 min, 4 °C. The final samples were quantified by BCA assay.
Size Exclusion Chromatography (SEC). The samples were further purified by SEC to achieve 90% purity in a AKTA system (Cytiva). The column Superdex 75 Increase 10/300 GL (29148721, Cytiva) was washed with water and equilibrated 2CV in PBS1x, as described by the manufacturer. As calibrants we prepare a mixture: 2 mg/mL of Bovine Serum Albumin (66 kDa, BP9702-100, FisherScientific), Ovalbumin (42 kDa, A5503-1G, Sigma), Chicken Lysozyme ([…], 62,971–10G-F, Fluka) and hPin1_WW chemically synthesized (5 kDa, produced in ([Dias et al., 2015])) in PBS 1x, this sample was filtered with 0.2 µm PES (514–0073, VWR) and analysed. The operation conditions: flow 0.5 mL/min, 0.05 CV in PBS1x and injection of 250 µL and run for 2 CV with PBS 1x at 16 °C. The same method was used for the WW domain samples. After purifications samples were quantified for total protein by BCA assay, as described previously and used for characterization.

[3] = test system: human polyclonal IgG; experiment: Screening ELISA of phage display clones (crude extracts) against human polyclonal IgG; type: binding; set-up: key: High: high binders (Abs>0.4); Moderate: moderate signal; details: crude extract of clones from 6th panning round, 1 µg/well human polyclonal IgG, blocked 3% (w/v) BSA in TBS, 50 µL extract 1 h at 37 °C, Anti-HA tag-HRP, ABTS, Abs405nm
Protocol: The biopanning of the previously developed WWp5_4 library ([Dias et al., 2025]) (Figures 1A,B) against human polyclonal IgG was performed for six rounds, after which an enrichment of ligands was observed (Supplementary Table S3). To assess the binding of each clone to the target, 192 clones were selected and expressed at small scale in 96-deep well blocks, following conditions previously optimised. After cell lysis, the supernatant containing the soluble fraction was used for ELISA assays. The results in Figure 1C illustrate the difference in the absorbance profile of the screened ligands. […] From these 26, only 21 presented high quality for reliable sequencing results. The sequence alignment and diversity of the different binders is represented in Table 1 and Figure 2A.
Small Scale Protein Expression and screening ELISA: From the output of the 6th round of panning, 94 isolated colonies were peaked into two sterile 96-well deep well 2mL round-bottom plates and grown with 200 µL of LB with ampicillin, 125 rpm, 37 °C, overnight (master plates). The following day, to one of the master plates was added glycerol to achieve a final concentration of 15% and was stored at -80 °C. Regarding the other master plate, 12 µL of this culture was added to another sterile 96-well deep well 2 mL round-bottom plate with 1.2 mL of LB with ampicillin and was grown at 37 °C, 125 rpm until OD600nm achieved 0.5-0.6. After this, protein expression was induced with 1 mM IPTG and continued incubation with the previous conditions. The following day, the cultures were sonicated for 30 minutes in ice-water bath and centrifuged for 10 minutes at 2500 x g. The supernatant was collected and transferred to a new microplate to be used in the screening for the ELISA (crude extract). For the ELISA, three microplates were tested: A) Sample binding plate; B) Negative control plate; C) Expression plate. On the sample binding plate, 1 µg/well of human polyclonal IgG was immobilized on the plate at 4 °C, overnight. On the following day, the target was removed, and the wells were washed once with TBS, then the plate was blocked with 300 µL 3% (w/v) BSA in TBS for 1 hour at 37 °C. After this, the wells were washed once with TBS, and were then incubated with 50 µL of crude extract (containing WW domain) for 1 hour at 37 °C. The plate was then washed 5 times with TBS-T, and then incubated with 100 µL of the Anti-HA tag-HRP conjugated antibody (diluted 1:1000) for 1 hour at 37 °C. The plate was then washed once with TBS-T and 4 times with TBS, and then incubated with the substrate ABTS for 1 hour at the dark at 37 °C. The results were then analysed in a microplate reader (TECAN) and the Abs405nm was then measured.
For the Negative control plate the protocol was the same as for the Binding microplate, except for the target immobilization. Instead of having IgG, only coating buffer was added. This plate allows to detect clones that unspecific bind to BSA present in the Blocking Buffer. For the Expression plate the protocol started at the step of incubation with the crude extract, and from there the steps were the same as the Binding microplate. This plate allows to detect clone’s basal expression level.

[4] = target: human polyclonal IgG (human); experiment: ELISA; hIgG immobilised (1 ug/well) in 0.1 M sodium bicarbonate pH 8.6 on Maxisorp plates; blocked with 5% soya milk in PBS; 100 uL soluble fraction (~0.065 mg/mL total protein), 2 h at room temperature; detection with anti-His-HRP and ABTS, Abs 405 nm

EC50 ([1]; E6_M2_T2, hIgG-FITC 25 nM, ligand from 695 nM 1:2 dilutions, PBS1x-0.05% (v/v) Tween-20 pH 7.4, 25 °C, n = 3): 157 nM | Kd ([1]; E6_M2_T2, hIgG-FITC 25 nM, ligand from 695 nM 1:2 dilutions, PBS1x-0.05% (v/v) Tween-20 pH 7.4, 25 °C, n = 3, read-out: dissociation constant, KD): 62 ± 14 nM
Molecule: C S GK LPPGW E E R KTRRFKLG R TYYYNHHILSKTS Q W EH PR G SSS GK LPPGW E E R KTRRFKLG R TYYYNHHILSKTS Q W EH PR G SS [Clone E6_M2_T2]
KD relative to KD of E6 native sequence ([1]; human IgG): half of the dissociation constant estimated for the E6 native sequence | aggregation compared with the monomeric version [2]: aggregates less than the monomeric version | solubility compared with native counterpart E6 ([2]; IMAC purification without chaotropic agents): higher solubility than the native counterpart | precipitation during size exclusion chromatography ([2]; Superdex 75 Increase 10/300 GL, PBS1x, 16 °C): did not observe any precipitation | stability compared with E6_M2 ([2]; after dialysis and during size exclusion chromatography): more stable | precipitation / solubility after dialysis ([2]; dialysis against PBS1x pH 7.4, up to 48 h at 16 °C): always soluble

Molecule: SMGLLPGWDEYKT WVVDV GKTYYYNH FKVS KTSTWTDPRMSS [Clone H8, WW domain clone against human IgG, loops WVVDV / FKVS]
ELISA signal [3]: Moderate

Molecule: SMGLPPGWDEYKT AFSRA GKTYYYNH YLEE KTSTWTDPRMSS [Clone G5, WW domain clone against human IgG, loops AFSRA / YLEE]
ELISA signal [3]: High (high binders (Abs>0.4))

Molecule: SMGLPPGWDEYKT ALSRW GKTYYYNH DWNP KTSTWTDPRMSS [Clone H7, WW domain clone against human IgG, loops ALSRW / DWNP]
ELISA signal [3]: Moderate

Molecule: SMGLPPGWDEYKT FEIVM GKTYYYNH MHTD KTSTWTDPRMSS [Clone D10, WW domain clone against human IgG, loops FEIVM / MHTD]
ELISA signal [3]: Moderate

Molecule: SMGLPPGWDEYKT SLSRP GKTYYYNH EEPS KTSTWTDPRMSS [Clone G3, WW domain clone against human IgG, loops SLSRP / EEPS]
ELISA signal [3]: High (high binders (Abs>0.4))

Molecule: SMGLPPGWDEYKT SMALL GKTYYYNH YTPG KTSTWTDPRMSS [Clone C8, WW domain clone against human IgG, loops SMALL / YTPG]
ELISA signal [3]: Moderate

Molecule: SMGLPPGWDEYKT TLAGL GKTYYYNH YTPG KTSTWTDPRMSS [Clone G9, WW domain clone against human IgG, loops TLAGL / YTPG]
ELISA signal [3]: Moderate

Molecule: SMGLPPGWDEYKT TMAWL GKTYYYNH YTPG KTSTWTDPRMSS [Clone A5, WW domain clone against human IgG, loops TMAWL / YTPG]
ELISA signal [3]: High (high binders (Abs>0.4))

Molecule: SMGLPPGWDEYKT VLYSG GKTYYYNH IMSL KTSTWTDPRMSS [Clone H6, WW domain clone against human IgG, loops VLYSG / IMSL]
ELISA signal [3]: High (high binders (Abs>0.4))

Molecule: SMGLPPGWDEYKT YRVMV GKTYYYNH LYRL KTSTWTDPRMSS [Clone H3, WW domain clone against human IgG, loops YRVMV / LYRL]
ELISA signal [3]: High (high binders (Abs>0.4))

ELISA binding signal relative to the negative control (E. coli Rosetta extract) [4]: 2 fold | ELISA binding signal relative to the scaffold framework WWp5 4 [4]: 2 fold
B1: E6_M2 (designed binder)
chain: CSGKLPPGWEERKTRRFKLGRTYYYNHHILSKTSQWEHPRGSS

ELISA binding signal relative to the negative control (E. coli Rosetta extract) [4]: 1.5 fold
B2: E6 in pET21a with C-terminal histidine tag (designed binder)
chain: SMGLPPGWDEYKTRRFKLGKTYYYNHHILSKTSTWTDPRMSS

Reference: publication PMC12647017, “Discovery and optimization of a synthetic small protein domain targeting antibodies” (Frontiers in Bioengineering and Biotechnology, 2025)
